These results are taken from patent publication US12514251B2, “Fused heterocyclic compounds and their use as pest control agents” (priority 2020, dated 2026).

Some results are limits rather than exact numbers.

As a reminder, the mortality is the share of the test organisms that died.

For this assay, the system named is Plutella xylostella. The assay is described as follows: Plutella xylostella, leaf dip method. Format: in vivo. As to conditions: foliar, cabbage leaf dip, second instar larvae, 72 h after release, dead + moribund vs untreated control, read-out: percent mortality. As to the method:
The leaf dip method was used for testing, wherein the required quantity of the compound was weighed and dissolved in a tube containing solvent solution. The tube was put on a vortex at 2000 rpm for 90 min for proper mixing, then diluted with 0.01% Triton-X solution to get the desired test concentration. Cabbage leaves were dipped in the compound solution for 10 seconds, shade dried for 20 min and then transferred into the cells of bioassay trays. A single second instar larva was released into each cell and the tray was covered with a lid. The bio-assay trays were then kept under laboratory conditions at a temperature of 25° C. and a relative humidity of 70%. Observations on dead, moribund and alive larvae were recorded 72 h after the release. Percent mortality was calculated by combining dead and moribund larvae and comparing the result to the one of the untreated control.
Consider `CCS(=O)(=O)c1cc(-c2ccc(Cl)cc2)cnc1-c1ncc2nc(C(F)(F)F)n(C)c2n1` [Compound 123, 2-(5-(4-chlorophenyl)-3-(ethylsulfonyl)pyridin-2-yl)-9-methyl-8-(trifluoromethyl)-9H-purine], for which the mortality at 300 ppm was ≥ 70%. For the compound `CCS(=O)(=O)c1cc(-c2ccc(C(F)(F)F)cc2)cnc1-c1ncc2nc(C(F)(F)F)n(C)c2n1` [Compound 129, 2-(3-(ethylsulfonyl)-5-(4-(trifluoromethyl)phenyl)pyridin-2-yl)-9-methyl-8-(trifluoromethyl)-9H-purine], the mortality at 300 ppm is ≥ 70%.

`CCS(=O)(=O)c1ccc(NC(C)C)nc1-c1ccn2nc(C(F)(F)F)cc2n1` [Compound 241, 5-(ethylsulfonyl)-N-isopropyl-6-(2-(trifluoromethyl)pyrazolo[1,5-a]pyrimidin-5-yl)pyridin-2-amine]: the mortality at 300 ppm is ≥ 70%. As for `CCS(=O)(=O)c1cc(-n2cnc(Cl)n2)cnc1-c1ccn2nc(C(F)(F)F)nc2n1` [Compound 148, 5-(5-(3-chloro-1H-1,2,4-triazol-1-yl)-3-(ethylsulfonyl)pyridin-2-yl)-2-(trifluoromethyl)-[1,2,4]triazolo[1,5-a]pyrimidine], the figure is ≥ 70%; as for `CCS(=O)(=O)c1ccc(-c2ccccc2)nc1-c1ccn2nc(C(F)(F)F)cc2n1` [Compound 15, 5-(3-(ethylsulfonyl)-6-phenylpyridin-2-yl)-2-(trifluoromethyl)pyrazolo[1,5-a]pyrimidine], ≥ 70%; as for `CCS(=O)(=O)c1cc(N)cnc1-c1ccn2nc(C(F)(F)F)cc2n1` [Compound 223, 5-(ethylsulfonyl)-6-(2-(trifluoromethyl)pyrazolo[1,5-a]pyrimidin-5-yl)pyridin-3-amine], ≥ 70%. As for `CCS(=O)(=O)c1cc(-c2cncnc2)cnc1-c1ccn2nc(C(F)(F)F)cc2n1` [Compound 95, 5-(3-(ethylsulfonyl)-5-(pyrimidin-5-yl)pyridin-2-yl)-2-(trifluoromethyl)pyrazolo[1,5-a]pyrimidine], the figure is ≥ 70%; as for `CCSc1cc(-c2ccnn2C)cnc1-c1ccn2nc(C(F)(F)F)cc2n1` [Compound 67, 5-(3-(ethylthio)-5-(1-methyl-1H-pyrazol-5-yl)pyridin-2-yl)-2-(trifluoromethyl)pyrazolo[1,5-a]pyrimidine], ≥ 70%. To `CCS(=O)(=O)c1cc(NC)cnc1-c1ccn2nc(C(F)(F)F)cc2n1` [Compound 218, 5-(ethylsulfonyl)-N-methyl-6-(2-(trifluoromethyl)pyrazolo[1,5-a]pyrimidin-5-yl)pyridin-3-amine] belongs ≥ 70%; to `CCS(=O)(=O)c1cc(-c2ccn3nc(C(F)(F)F)cc3n2)cnc1-n1ncn(-c2ccc(Cl)cc2)c1=O` [Compound 80, 4-(4-chlorophenyl)-2-(3-(ethylsulfonyl)-5-(2-(trifluoromethyl)pyrazolo[1,5-a]pyrimidin-5-yl)pyridin-2-yl)-2,4-dihydro-3H-1,2,4-triazol-3-one], ≥ 70%. Take `CCS(=O)(=O)c1cc(-c2ccn3nc(C(F)(F)F)cc3n2)cnc1-n1cncn1` [Compound 31, 5-(5-(ethylsulfonyl)-6-(1H-1,2,4-triazol-1-yl)pyridin-3-yl)-2-(trifluoromethyl)pyrazolo[1,5-a]pyrimidine]: the mortality at 300 ppm is ≥ 70%. For `CC#Cc1ccc(S(=O)(=O)CC)c(-c2ccn3nc(C(F)(F)F)cc3n2)n1` [Compound 173, 5-(3-(ethylsulfonyl)-6-(prop-1-yn-1-yl)pyridin-2-yl)-2-(trifluoromethyl)pyrazolo[1,5-a]pyrimidine], the mortality at 300 ppm is ≥ 70%. In the case of `CCS(=O)(=O)c1ccc(-n2ncn(-c3ccc(OC(F)(F)F)cc3)c2=O)nc1-c1ccn2nc(C(F)(F)F)cc2n1` [Compound 10, 2-(5-(ethylsulfonyl)-6-(2-(trifluoromethyl)pyrazolo[1,5-a]pyrimidin-5-yl)pyridin-2-yl)-4-(4-(trifluoromethoxy)phenyl)-2,4-dihydro-3H-1,2,4-triazol-3-one], the mortality at 300 ppm is ≥ 70%. With `CCSc1cc(-c2ccc(OC(F)(F)C(F)F)cc2)cnc1-c1ccn2nc(C(F)(F)F)cc2n1` [Compound 191, 5-(3-(ethylthio)-5-(4-(1,1,2,2-tetrafluoroethoxy)phenyl)pyridin-2-yl)-2-(trifluoromethyl)pyrazolo[1,5-a]pyrimidine], the mortality at 300 ppm was ≥ 70%.

As to `CCS(=O)(=O)c1cc(C=C(C)C)cnc1-c1ccn2nc(C(F)(F)F)cc2n1` [Compound 201, 5-(3-(ethylsulfonyl)-5-(2-methylprop-1-en-1-yl)pyridin-2-yl)-2-(trifluoromethyl)pyrazolo[1,5-a]pyrimidine], the mortality at 300 ppm was ≥ 70%. Regarding `CCS(=O)(=O)c1cc(-n2cnc(Br)n2)cnc1-c1ccn2nc(C(F)(F)F)cc2n1` [Compound 177, 5-(5-(3-bromo-1H-1,2,4-triazol-1-yl)-3-(ethylsulfonyl)pyridin-2-yl)-2-(trifluoromethyl)pyrazolo[1,5-a]pyrimidine], the mortality at 300 ppm was ≥ 70%. Turning to `CCS(=O)(=O)c1cc(-c2cc(F)cc(F)c2)cnc1-c1ncc2nc(C(F)(F)F)n(C)c2n1` [Compound 122, 2-(5-(3,5-difluorophenyl)-3-(ethylsulfonyl)pyridin-2-yl)-9-methyl-8-(trifluoromethyl)-9H-purine], the mortality at 300 ppm was ≥ 70%. Consider `CCS(=O)(=O)c1cc(-c2ccc(F)cc2)cnc1-c1ncc2nc(C(F)(F)F)n(C)c2n1` [Compound 118, 2-(3-(ethylsulfonyl)-5-(4-fluorophenyl)pyridin-2-yl)-9-methyl-8-(trifluoromethyl)-9H-purine], for which the mortality at 300 ppm was ≥ 70%.

Consider `CCS(=O)(=O)c1ccc(C)nc1-c1ccn2nc(C(F)(F)F)nc2n1` [Compound 183, 5-(3-(ethylsulfonyl)-6-methylpyridin-2-yl)-2-(trifluoromethyl)-[1,2,4]triazolo[1,5-a]pyrimidine], for which the mortality at 300 ppm was ≥ 70%. As for `CCS(=O)(=O)c1ccc(O)nc1-c1ccn2nc(C(F)(F)F)cc2n1` [Compound 236, 5-(ethylsulfonyl)-6-(2-(trifluoromethyl)pyrazolo[1,5-a]pyrimidin-5-yl)pyridin-2-ol], the mortality at 300 ppm was ≥ 70%.

`CCS(=O)(=O)c1cc(-c2ccc(Cl)c(F)c2)cnc1-c1ncc2nc(C(F)(F)F)n(C)c2n1` [Compound 124, 2-(5-(4-chloro-3-fluorophenyl)-3-(ethylsulfonyl)pyridin-2-yl)-9-methyl-8-(trifluoromethyl)-9H-purine]: the mortality at 300 ppm is ≥ 70%.

For `C=Cc1cnc(-c2ccn3nc(C(F)(F)F)cc3n2)c(S(=O)(=O)CC)c1` [Compound 212, 5-(3-(ethylsulfonyl)-5-vinylpyridin-2-yl)-2-(trifluoromethyl)pyrazolo[1,5-a]pyrimidine], the mortality at 300 ppm was ≥ 70%.

Regarding `CCS(=O)(=O)c1cc(C2CC2)cnc1-c1ccn2nc(C(F)(F)F)nc2n1` [Compound 142, 5-(5-cyclopropyl-3-(ethylsulfonyl)pyridin-2-yl)-2-(trifluoromethyl)-[1,2,4]triazolo[1,5-a]pyrimidine], the mortality at 300 ppm is ≥ 70%. As for `CCS(=O)(=O)c1ccc(OC)nc1-c1ccn2nc(C(F)(F)F)cc2n1` [Compound 226, 5-(3-(ethylsulfonyl)-6-methoxypyridin-2-yl)-2-(trifluoromethyl)pyrazolo[1,5-a]pyrimidine], the mortality at 300 ppm is ≥ 70%. Regarding `CCS(=O)(=O)c1cc(-c2ccc(Cl)c(F)c2)cnc1-c1ccn2nc(C(F)(F)F)nc2n1` [Compound 162, 5-(5-(4-chloro-3-fluorophenyl)-3-(ethylsulfonyl)pyridin-2-yl)-2-(trifluoromethyl)-[1,2,4]triazolo[1,5-a]pyrimidine], the mortality at 300 ppm was ≥ 70%. As for `CCSc1cc(-c2ccc(F)cc2)cnc1-c1ccn2nc(C(F)(F)F)cc2n1` [Compound 190, 5-(3-(ethylthio)-5-(4-fluorophenyl)pyridin-2-yl)-2-(trifluoromethyl)pyrazolo[1,5-a]pyrimidine], the mortality at 300 ppm is ≥ 70%. `CCS(=O)(=O)c1ccc(-c2ccc(OC(F)(F)C(F)F)cc2)nc1-c1ccn2nc(C(F)(F)F)cc2n1` [Compound 28, 5-(3-(ethylsulfonyl)-6-(4-(1,1,2,2-tetrafluoroethoxy)phenyl)pyridin-2-yl)-2-(trifluoromethyl)pyrazolo[1,5-a]pyrimidine]: the mortality at 300 ppm is ≥ 70%. Consider `CCS(=O)(=O)c1ccc(NCC2CC2)nc1-c1ccn2nc(C(F)(F)F)cc2n1` [Compound 242, N-(cyclopropylmethyl)-5-(ethylsulfonyl)-6-(2-(trifluoromethyl)pyrazolo[1,5-a]pyrimidin-5-yl)pyridin-2-amine], for which the mortality at 300 ppm was ≥ 70%. In the case of `CCS(=O)(=O)c1ccc(/C=C/C2CC2)nc1-c1ccn2nc(C(F)(F)F)cc2n1` [Compound 216, (E)-5-(6-(2-cyclopropylvinyl)-3-(ethylsulfonyl)pyridin-2-yl)-2-(trifluoromethyl)pyrazolo[1,5-a]pyrimidine], the mortality at 300 ppm was ≥ 70%.

Consider `CCS(=O)(=O)c1cc(C2CCC2)cnc1-c1ccn2nc(C(F)(F)F)cc2n1` [Compound 213, 5-(5-cyclobutyl-3-(ethylsulfonyl)pyridin-2-yl)-2-(trifluoromethyl)pyrazolo[1,5-a]pyrimidine], for which the mortality at 300 ppm is ≥ 70%. `CCS(=O)(=O)c1ccc(-c2ccc(Cl)cc2)nc1-c1cnc2nc(C(F)(F)F)nn2c1` [Compound 47, 6-(6-(4-chlorophenyl)-3-(ethylsulfonyl)pyridin-2-yl)-2-(trifluoromethyl)-[1,2,4]triazolo[1,5-a]pyrimidine]: the mortality at 300 ppm was ≥ 70%.
